Legend:
[1] = target: PKC; settings: PKC; cited from earlier work
[2] = test system: Nannochloris sp.; assay: Microplate assay: growth (absorbance 680 nm) and intracellular lipids (Nile Red fluorescence); assay type: cell-based; settings: microplate assay, multiple concentrations
Experimental: Stock cultures were aerated by stirring with bubbling air (homemade manifold with Petco air pump, 2-4% CO2) or by orbital shaking (Thermo Scientific MAXQ 2000) at a constant speed of 150 rpm at 22±3° C. with a 16:8 hour light/dark cycle. Stocks were kept at stationary phase for use. Algae were prepared as dictated by culture center.
Compounds were selected based on reported biological activity in non-microalgae organisms. To ensure that compounds retained their quality, they were stored under advised conditions after purchasing from the manufacturer. Solutions of all assay compounds were prepared as 10 mM stock solutions by dissolving in DMSO in 2-dram amber vials and then stored in darkness −20° C. 96-well PCR plates were used to create a stock plate layout that was then transferred to the algae microplates. A plate map was used to distribute each compound to a well based on molecule name, collection number, and CAS number. For 20 μM and 200 nM assay plates, 10 mM compound stock in DMSO was diluted into plate maps of 5 mM and 50 μM assay stocks, respectively.
All materials for assay experiments were autoclaved before each use to maintain axenic algae cultures. Algae species were checked for homogeneity using a TS-100 light microscope (Nikon, Japan). […] Diluted stock solutions were made immediately prior to use for consistency and optimal plate growth. Cell density was measured on a Thermo Scientific Genesys 10S Vis Spectrophotometer (ThermoFisher, San Jose), using a 1 mL cuvette at 680 nm.
Plates were originally run in triplicate, before replicates were increased to quadruplicate, along with a separate control plate to compare growth. Due to extensive evaporation in exterior wells over time, our unique algae plate layout was designed to use the 60 interior wells out of 96 wells for the experiment. The 36 outer wells were filled with Millipore water and media to prevent evaporation and edge effects in the inner algae wells, as well as serve as blanks. The 60 wells with algae contained a total volume of 251 μL (100 μL of media+DMSO compound stock +150 μL dilute algae stock). For 20 μM and 200 nM assay plates, 10 mM compound stock in DMSO is diluted into plate maps of 5 mM and 50 μM assay stocks, respectively. […] Plates were parafilmed during growth to limit the amount of evaporation that can occur. Plates were numbered, and numerically ordered to ensure they got the same shaker space.
The shakers are kept at a constant shaking of 150 rpm. Ambient temperature is 22±3° C.

[3] = test system: Nannochloropsis oculata; settings: microplate assay, multiple concentrations
[4] = test system: Nannochloropsis salina; settings: microplate assay, multiple concentrations
[5] = test system: FABI; settings: cited from earlier work
[6] = test system: Phaeodactylum tricornutum; assay: Microplate assay: growth (absorbance 680 nm) and intracellular lipids (Nile Red fluorescence); assay type: cell-based
[7] = test system: Nannochloropsis sp.; assay: Microplate assay: increase of lipid production (Table 17); assay type: cell-based; settings: best conc. 2.4 nM
Text: We also tested a collection with more antioxidants, kinase inhibitors, and further compounds for increase of lipid production with N. salina, P. tricornutum, N. oculata, and Nannochloropsis sp.

[8] = target: CDK4/cyclin D1 (Homo sapiens, UniProt P11802); settings: CDK4/D1; cited from earlier work
[9] = target: Cdk2/cyclin A (Homo sapiens, UniProt P24941); settings: CDK2/A; cited from earlier work

CDK4/cyclin D1, sequence (P11802 whole entry, species assumed): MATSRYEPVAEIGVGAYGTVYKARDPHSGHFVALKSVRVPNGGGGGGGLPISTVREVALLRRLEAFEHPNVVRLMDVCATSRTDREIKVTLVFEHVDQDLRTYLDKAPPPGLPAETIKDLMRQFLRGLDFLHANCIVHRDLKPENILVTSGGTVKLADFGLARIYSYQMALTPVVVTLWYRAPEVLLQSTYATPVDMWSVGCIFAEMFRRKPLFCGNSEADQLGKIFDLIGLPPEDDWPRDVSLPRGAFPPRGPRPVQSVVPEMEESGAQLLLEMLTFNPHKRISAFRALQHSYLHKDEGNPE
CDK4/cyclin D1, sequence (P24385 whole entry partner, species assumed): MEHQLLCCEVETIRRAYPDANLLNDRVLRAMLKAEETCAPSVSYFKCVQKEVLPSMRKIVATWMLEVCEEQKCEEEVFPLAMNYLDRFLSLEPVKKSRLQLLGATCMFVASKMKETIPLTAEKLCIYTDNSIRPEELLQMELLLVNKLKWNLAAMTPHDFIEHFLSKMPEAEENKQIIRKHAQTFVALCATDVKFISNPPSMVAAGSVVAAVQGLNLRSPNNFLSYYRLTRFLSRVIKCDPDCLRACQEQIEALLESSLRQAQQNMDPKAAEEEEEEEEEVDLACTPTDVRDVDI

COC(=O)[C@@]1(O)C[C@H]2O[C@]1(C)n1c3ccccc3c3c4c(c5c6ccccc6n2c5c31)C(=O)NC4 [K-252a]
Ki [1]: 25 nM

O=C(O[C@@H]1Cc2c(O)cc(O)cc2O[C@@H]1c1ccc(O)c(O)c1)c1cc(O)c(O)c(O)c1 [(−)-epicatechin gallate, [(2R,3R)-2-(3,4-dihydroxyphenyl)-5,7-dihydroxy-3,4-dihydro-2H-chromen-3-yl] 3,4,5-trihydroxybenzoate]
effect on lipid production / lipid levels [2]: lipid production increased | effect on lipid production / lipid levels [3]: lipid production increased | effect on lipid production / lipid levels [4]: lipid production increased | IC50 [5]: 200 nM | % Inc ([6]; increase of lipid production, P. tricornutum, best conc. 156 nM): 77.89% | effect on lipid production / lipid levels ([6]; microplate assay, multiple concentrations): lipid production increased | concentration of the highest lipid increase ([6]; microplate, catechin screen (FIG. 14)): 39 to 56 nM

Cc1c(C)c2c(c(C)c1O)CC[C@@](C)(CCC[C@H](C)CCC[C@H](C)CCCC(C)C)O2 (racemic) [DL-α-Tocopherol (Vitamin E), (2R)-2,5,7,8-tetramethyl-2-[(4R,8R)-4,8,12-trimethyltridecyl]-3,4-dihydrochromen-6-ol]
% Inc [7]: 31.44%

O=C1NC(=O)c2c1c1c3ccccc3[nH]c1c1[nH]c3cc(Br)ccc3c21 [CDK4 Inhibitor 3, 2-Bromo-12,13-dihydro-5H-indolo[2,3a]pyrrolo[3,4-c]carbazole-5,7(6H)-dione]
IC50 [8]: 6000 nM | IC50 [9]: > 200000 nM

Reference: patent publication US8778643B2, “Methods for increasing lipid levels and producing triacylglycerols in algae” (priority 2012, dated 2014)
